Experiment [1] concerns the target T1, DAT (dopamine transporter) (Homo sapiens, UniProt Q01959).
T1 construct: gene SLC6A3
The experiment in a line: radioligand displacement of [3H]BTCP, CHO cell membranes. A general note: Displacement assays read how much labelled ligand stays bound in the presence of the test substance.

The target in experiment [2] is T2, NET (norepinephrine transporter) (Homo sapiens, UniProt P23975).
T2 construct: gene SLC6A2
The experiment can be described thus: radioligand displacement of [3H]nisoxetine, CHO cell membranes.

For experiment [3], the target named is T3, SERT (serotonin transporter) (Homo sapiens, UniProt P31645).
T3 construct: gene SLC6A4
The experiment in a line: radioligand displacement of [3H]imipramine, CHO cell membranes.

T2 sequence (P23975 whole entry): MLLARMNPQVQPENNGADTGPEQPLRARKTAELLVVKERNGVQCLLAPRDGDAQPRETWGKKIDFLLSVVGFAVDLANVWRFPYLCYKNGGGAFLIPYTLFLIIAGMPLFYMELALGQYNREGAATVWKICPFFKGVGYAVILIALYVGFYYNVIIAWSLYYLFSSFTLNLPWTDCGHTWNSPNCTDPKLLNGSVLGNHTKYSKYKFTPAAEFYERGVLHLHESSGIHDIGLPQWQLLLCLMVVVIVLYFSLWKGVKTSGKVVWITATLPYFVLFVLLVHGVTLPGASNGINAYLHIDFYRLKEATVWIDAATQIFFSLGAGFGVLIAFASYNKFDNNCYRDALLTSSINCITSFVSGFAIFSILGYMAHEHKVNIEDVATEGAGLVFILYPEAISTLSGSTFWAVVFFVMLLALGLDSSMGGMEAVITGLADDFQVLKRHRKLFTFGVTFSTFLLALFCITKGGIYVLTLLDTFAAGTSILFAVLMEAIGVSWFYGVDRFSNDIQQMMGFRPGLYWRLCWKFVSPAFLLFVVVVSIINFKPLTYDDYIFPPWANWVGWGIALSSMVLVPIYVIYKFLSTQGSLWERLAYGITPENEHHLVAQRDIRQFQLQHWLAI
T1 sequence (Q01959 whole entry): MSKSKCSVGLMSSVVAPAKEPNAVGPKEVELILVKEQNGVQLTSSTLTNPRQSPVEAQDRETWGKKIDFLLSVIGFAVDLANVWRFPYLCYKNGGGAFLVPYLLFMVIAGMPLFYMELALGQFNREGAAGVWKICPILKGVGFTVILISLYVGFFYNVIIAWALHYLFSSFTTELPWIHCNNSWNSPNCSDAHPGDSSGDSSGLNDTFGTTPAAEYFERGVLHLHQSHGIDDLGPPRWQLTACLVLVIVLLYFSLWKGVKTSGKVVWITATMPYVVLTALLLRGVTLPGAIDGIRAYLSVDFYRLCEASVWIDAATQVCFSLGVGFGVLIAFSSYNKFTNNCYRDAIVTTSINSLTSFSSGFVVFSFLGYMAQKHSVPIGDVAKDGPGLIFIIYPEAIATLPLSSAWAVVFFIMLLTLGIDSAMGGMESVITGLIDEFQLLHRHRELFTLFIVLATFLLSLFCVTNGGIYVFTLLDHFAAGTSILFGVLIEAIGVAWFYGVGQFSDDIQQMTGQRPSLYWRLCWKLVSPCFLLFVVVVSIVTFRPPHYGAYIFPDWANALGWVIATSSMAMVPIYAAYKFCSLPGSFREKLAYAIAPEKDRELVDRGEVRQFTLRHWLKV
T3 sequence (P31645 whole entry): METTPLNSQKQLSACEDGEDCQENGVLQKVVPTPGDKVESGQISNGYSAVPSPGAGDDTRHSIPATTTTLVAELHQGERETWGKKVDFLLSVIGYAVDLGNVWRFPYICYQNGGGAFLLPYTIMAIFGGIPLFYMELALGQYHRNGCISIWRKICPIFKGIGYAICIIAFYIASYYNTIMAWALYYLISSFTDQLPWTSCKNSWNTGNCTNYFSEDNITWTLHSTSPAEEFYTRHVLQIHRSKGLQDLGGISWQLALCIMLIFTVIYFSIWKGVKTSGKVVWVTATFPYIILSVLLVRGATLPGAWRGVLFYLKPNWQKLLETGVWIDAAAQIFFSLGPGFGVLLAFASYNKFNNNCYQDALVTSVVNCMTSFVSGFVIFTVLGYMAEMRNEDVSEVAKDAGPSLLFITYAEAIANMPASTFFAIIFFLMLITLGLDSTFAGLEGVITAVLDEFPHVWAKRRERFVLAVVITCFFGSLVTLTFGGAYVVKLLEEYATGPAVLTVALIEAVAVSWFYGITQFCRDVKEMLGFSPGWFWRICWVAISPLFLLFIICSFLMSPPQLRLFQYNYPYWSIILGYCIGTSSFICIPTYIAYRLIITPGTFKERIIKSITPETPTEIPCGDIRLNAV

The inhibition is the relative decrease from the control value, in per cent. For the molecule `CN(C)CC(c1ccc(Oc2ccccc2)cc1)C1(O)CCCCC1` (stereo not drawn) [LPM580098, 1-[2-(dimethylamino)-1-(4-phenoxyphenyl)ethyl] cyclohexanol], the inhibition at 10 µM in experiment [1] is 77.5%; in experiment [2] it was 45%; in experiment [3], 90.3%.

(Values after PMC6382704, “LPM580098, a Novel Triple Reuptake Inhibitor of Serotonin, Noradrenaline, and Dopamine, Attenuates Neuropathic Pain” (Frontiers in Pharmacology, 2019).)
